Data reported in PubChem BioAssay (NCI).
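Where inhibition never reached the appropriate level, the endpoint shown equals the highest concentration tested. Otherwise, values were interpolated linearly from a five-concentration, 48-hour dose response in 96-well plates. Here, GI50 denotes the concentration required for 50% inhibition of growth. Definition used: TGI = concentration required for complete inhibition of growth.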

Experiments:
Assay in all cases: NCI anticancer screen, dose series, 48 h
[1] = test system: RXF 393 renal
[2] = test system: CCRF-CEM leukemia
[3] = test system: K-562 leukemia
[4] = test system: UACC-257 melanoma
[5] = test system: SW-620 colon
[6] = test system: BT-549 breast
[7] = test system: MDA-MB-435
[8] = test system: SNB-75 CNS
[9] = test system: SF-295 CNS
[10] = test system: NCI-H460 lung
[11] = test system: OVCAR-3 ovarian
[12] = test system: DU-145 prostate
[13] = test system: 786-0 renal
[14] = test system: OVCAR-4 ovarian
[15] = test system: MALME-3M melanoma
[16] = test system: HCT-116 colon
[17] = test system: KM12 colon
[18] = test system: MDA-MB-468 breast
[19] = test system: EKVX NSCLC
[20] = test system: NCI-H522 lung
[21] = test system: COLO 205 colon
[22] = test system: SK-MEL-5 melanoma
[23] = test system: U251 CNS
[24] = test system: SF-539 CNS
[25] = test system: TK-10 renal
[26] = test system: MCF7 breast
[27] = test system: HT29 colon
[28] = test system: SK-MEL-2 melanoma
[29] = test system: ACHN renal
[30] = test system: NCI-H23 lung
[31] = test system: SK-MEL-28 melanoma
[32] = test system: IGROV1 ovarian
[33] = test system: LOX IMVI melanoma
[34] = test system: SK-OV-3 ovarian
[35] = test system: UACC-62 melanoma
[36] = test system: OVCAR-5 ovarian
[37] = test system: HOP-92 NSCLC
[38] = test system: RPMI-8226 leukemia
[39] = test system: HS 578T breast
[40] = test system: HCC-2998 colon
[41] = test system: SNB-19 CNS
[42] = test system: HCT-15 colon
[43] = test system: T-47D breast
[44] = test system: PC-3 prostate
[45] = test system: M14 melanoma
[46] = test system: MOLT-4 leukemia
[47] = test system: CAKI-1 renal
[48] = test system: HL-60(TB) leukemia
[49] = test system: NCI/ADR-RES ovarian
[50] = test system: NCI-H226 lung
[51] = test system: HOP-62 NSCLC
[52] = test system: SF-268 CNS
[53] = test system: OVCAR-8 ovarian
[54] = test system: SN12C renal
[55] = test system: A498 renal
[56] = test system: A549 NSCLC

Which results are given for `CCCCCCCCCCCCCCCCCCCC(=O)NCCc1c[nH]c2ccc(OC(=O)NOCCOCCOCCOCCOCCOCCOCCOCCOCCOCCOCCOCCOCCOCCOCCOCCOCCOCCOCCOCCOCCOCCOC)cc12`?
GI50 [1]: 19.7 µM; TGI [1]: 53.6 µM; GI50 [2]: 13.5 µM; TGI [2]: 33.8 µM; GI50 [3]: 17.7 µM; TGI [3]: 70.9 µM; GI50 [4]: 14.7 µM; TGI [4]: 30.2 µM; GI50 [5]: 17.8 µM; TGI [5]: 33.1 µM; GI50 [6]: 14.1 µM; TGI [6]: 28.5 µM; GI50 [7]: 20.6 µM; TGI [7]: 48.6 µM; GI50 [8]: 26.9 µM; TGI [8]: 86 µM; GI50 [9]: 17.8 µM; TGI [9]: 36.7 µM; GI50 [10]: 23.4 µM; TGI [10]: 79.4 µM; GI50 [11]: 13.2 µM; TGI [11]: 53.3 µM; GI50 [12]: 28 µM; TGI [12]: > 100 µM; GI50 [13]: 31 µM; TGI [13]: 89 µM; GI50 [14]: 18.7 µM; TGI [14]: 87.7 µM; GI50 [15]: 14.4 µM; TGI [15]: 29.3 µM; GI50 [16]: 17.4 µM; TGI [16]: 38.2 µM; GI50 [17]: 19.8 µM; TGI [17]: 41.2 µM; GI50 [18]: 11.9 µM; TGI [18]: 26.3 µM; GI50 [19]: 20.9 µM; TGI [19]: 88.4 µM; GI50 [20]: 14.9 µM; TGI [20]: 28.8 µM; GI50 [21]: 16.6 µM; TGI [21]: 30.9 µM; GI50 [22]: 13.5 µM; TGI [22]: 26.5 µM; GI50 [23]: 16.7 µM; TGI [23]: 32.8 µM; GI50 [24]: 17.9 µM; TGI [24]: 40 µM; GI50 [25]: 19.5 µM; TGI [25]: 56.1 µM; GI50 [26]: 11 µM; TGI [26]: 28.5 µM; GI50 [27]: 15.6 µM; TGI [27]: 30.8 µM; GI50 [28]: 12.8 µM; TGI [28]: 26 µM; GI50 [29]: 45.7 µM; TGI [29]: > 100 µM; GI50 [30]: 19.9 µM; TGI [30]: 46.2 µM; GI50 [31]: 15.9 µM; TGI [31]: 33.9 µM; GI50 [32]: 21.4 µM; TGI [32]: 57.1 µM; GI50 [33]: 14.9 µM; TGI [33]: 28.5 µM; GI50 [34]: 19.1 µM; TGI [34]: 41.3 µM; GI50 [35]: 17 µM; TGI [35]: 31.4 µM; GI50 [36]: 17.3 µM; TGI [36]: 41.9 µM; GI50 [37]: 6.3 µM; TGI [37]: 44.7 µM; GI50 [38]: 11.8 µM; TGI [38]: 37.6 µM; GI50 [39]: 16.6 µM; TGI [39]: 41.2 µM; GI50 [40]: 15.6 µM; TGI [40]: 30 µM; GI50 [41]: 20.3 µM; TGI [41]: 51.7 µM; GI50 [42]: 54.4 µM; TGI [42]: > 100 µM; GI50 [43]: 9.98 µM; TGI [43]: 23.2 µM; GI50 [44]: 18.3 µM; TGI [44]: 70.9 µM; GI50 [45]: 17.5 µM; TGI [45]: 35.2 µM; GI50 [46]: 5.32 µM; TGI [46]: 24.9 µM; GI50 [47]: > 100 µM; TGI [47]: > 100 µM; GI50 [48]: 14.4 µM; TGI [48]: 32.7 µM; GI50 [49]: > 100 µM; TGI [49]: > 100 µM; GI50 [50]: 17.4 µM; TGI [50]: 38.5 µM; GI50 [51]: 17.8 µM; TGI [51]: 36.3 µM; GI50 [52]: 14.8 µM; TGI [52]: 52.7 µM; GI50 [53]: 16.4 µM; TGI [53]: 46.2 µM; GI50 [54]: 15.1 µM; TGI [54]: 39.5 µM; GI50 [55]: 25.9 µM; TGI [55]: 89.9 µM; GI50 [56]: 17.7 µM; TGI [56]: 47.9 µM
